From patent US20220409578A1, “FUNCTIONALIZED 1,3-BENZENE DIOLS AND THEIR METHOD OF USE FOR THE TREATMENT OF RADIATION DERMATITIS AND OTHER SKIN DISORDERS” (KANNALIFE SCIENCES, INC., priority 2019, published 2022)

Columns and labels:
[1] = test system: human 3D skin-like EPIDERM; conditions: 1 h
IL-1β = IL-1β release from UV-B irradiated human epidermal keratinocytes (ELISA); assay type: cell-based; conditions: Keratinocyte, light or radiation study; UV-B 25 mJ/cm^2, human epidermal keratinocytes; read-out: IC50 of interleukin-1β inhibition
Experimental: Normal human epidermal keratinocytes cultures were utilized to measure the release of proinflammatory cytokines and chemokines. Primary epidermal keratinocytes from neonatal donors were used from human origin and purchased from Thermo-Fisher (Cat No. A13401). […] Cells were cultured until the second passage and then acclimated for 48 hours more before UV-B irradiation. Dosing procedures and cell groups were identified using appropriate cell culture 24-well plates. The cell culture incubator was set at 5% v/v CO2 with temperature and humidity maintained at 36-38° C. and 40-70%, respectively. The test and control substances were administered to HKGS-depleted medium in triplicates. A fixed 5 μL/well from 100× stock dose volume was administered to 500 μL of media to each cell culture well on Day 3 and pre-incubated for 6 hours and then post-UVB incubated for 18 hours. […] Media supernatants were harvested and analyzed for TNFα and IL-1β levels by ELISA method. Cytokine levels were assessed from cell culture media supernatants using BD Biosciences OptEIA™ Human TNFα (Cat. No. 555212) and IL-1β (Cat. No. 557953) and ELISA set kit and Reagent Set B (Cat. No. 550534) according the manufacture's specifications. Absorbance was measured at 450 nm using a plate reader and calculated cytokine levels were determined from a standard curve.

[2] = test system: human dermal microvascular endothelial cells; assay type: cell-based; conditions: 6 h
Experimental: Dermal Microvascular endothelial cells of human origin were cultured in vitro using standard conditions (37° C., 95% v/v air, 5% v/v CO2). Human cells were selected as relevant to cell types within skin tissues for this development program. Cell culture methods are commonly used in non-clinical studies conducted on pharmaceutical products. […] Cells were cultured until the third and fourth passage and then acclimated for 24 hours before Nickel induction and dosing procedures. Cell treatment groups were identified using appropriate 96-well plates. The test and control articles were administered to medium containing 1 mM NiSO4 in triplicates. The negative control group received vehicle-only (0.1% v/v final) dose. A fixed 0.1 μL/well from 1000× stock dose volume was administered to 100 μL of media to each cell culture well on Day 2 and incubated for 6 hours at 37 degrees. These cell cultures were also utilized to determine the concentrations of test agent that were non-toxic after 24 hours of incubation. Cell Viability assays were conducted using MTS reduction assays (Promega) diluted 1:5 in DMEM+10% FBS media as specified by the manufacturer. Absorbance was measured at 490 nm using plate reader and cell viability was calculated as a percent of control. This assay was done along with all culture systems that were utilized to study cytokine release. […]

[3] = test system: human epidermal keratinocytes; assay type: cell-based; conditions: 24 h
Experimental: Normal human epidermal keratinocytes cultures were utilized to measure the release of proinflammatory cytokines and chemokines. Primary epidermal keratinocytes from neonatal donors were used from human origin and purchased from Thermo-Fisher (Cat No. A13401). […] Cells were cultured until the second passage and then acclimated for 48 hours more before UV-B irradiation. Dosing procedures and cell groups were identified using appropriate cell culture 24-well plates. The cell culture incubator was set at 5% v/v CO2 with temperature and humidity maintained at 36-38° C. and 40-70%, respectively. The test and control substances were administered to HKGS-depleted medium in triplicates. A fixed 5 μL/well from 100× stock dose volume was administered to 500 μL of media to each cell culture well on Day 3 and pre-incubated for 6 hours and then post-UVB incubated for 18 hours. The same procedure was utilized to determine non-toxic concentrations of 1,3-benzene diols after 24 hours of treatment. Cell Viability assays were conducted using MTS reduction assays (Promega) diluted 1:5 in DMEM+10% FBS media as specified by the manufacturer. Absorbance was measured at 490 nm using plate reader and cell viability was calculated as a percent of control. This assay was done along with all culture systems that were utilized to study cytokine release. […]

[4] = Antioxidant capacity (ABTS/metmyoglobin assay); assay type: biochemical; conditions: OD 750 nm, 15 minutes after hydrogen peroxide
Experimental: Antioxidant capacity: The purpose of this study was to evaluate the overall antioxidant capacity of KLS-13022 for the ability to inhibit the oxidation of ABTS. (2,2′-Azino-di-[3-ethylbenzthiazoline sulphonate]) to ABTS.^+ by metmyoglobin. Ascorbic acid (Vitamin C) was used as positive antioxidant control in the assay. The testing involved the suppression of optical density (OD) at 750 nm to a degree, which is proportional to an effective oxidation inhibition. Neat solutions were prepared for materials formulated in HPLC-grade water (ascorbic acid) or 200-proof ethanol (KLS-13022). Serial dilutions were prepared for each material and mixed with metmyoglobin enzyme in assay buffer solution. All samples were compared to vehicle-only treated samples used as negative oxidation inhibition. Optical density changes at 750 nm were evaluated 15 minutes after addition of hydrogen peroxide to each sample. Average absorbance was calculated and plotted for each sample concentration. Effective antioxidant inhibition activity based on the change of absorbance of blank (vehicle-only) sample (no material added). […] The Antioxidant assay kit was obtained from Cayman Chemical Co. (Ann Arbor, Mich.). The assay consisted in the evaluation of the overall antioxidant capacity of test materials for the ability to inhibit the oxidation of ABTS. to ABTS.^+ by metmyoglobin. […]

With `C=C(C)[C@@H]1CCC(C)=C[C@H]1c1c(O)cc(CC2CN(C(=O)OCC)C2)cc1O` [KLS-13022, ethyl 3-(3,5-dihydroxy-4-((1R,6R)-3-methyl-6-(prop-1-en-2-yl)cyclohex-2-enyl)benzyl)azetidine-1-carboxylate] the tissue viability [1] was ≥ 50%, the IC50 (IL-1β) was 0.38 µM and the non-toxic concentration range [2] was ≤ 12 µM. The non-toxic concentration range [3] was ≤ 10 µM and the EC50 [4] was 25.6 µM.
